Measured values from US20120225849A1, “2-Methoxyestradiol (2-ME2) Prodrug with Enhanced Bioavailability for Prophylaxis or Treatment of Cancerous or Non-Cancerous Condition” (The University of Kansas, priority 2011, published 2012).

Legend:
[1] = oxidation of 2-ME2 at the 17 position; References 3, 13 and 19; cited from earlier work
[2] = Reference 13, cited from earlier work
[3] = Rat plasma pharmacokinetics of 2-ME2 after intravenous and oral dosing (cannulated rat model); type: in vivo, Sprague Dawley rats; conditions: for Bioavailability: AUC through 480 minutes
Method: The main compound of the present invention (2ME2-PD) and the native compound (8R,9S,13S,14S,17S)-2-methoxy-13-methyl-7,8,9,11,12,13,14,15,16,17-decahydro-6H-cyclopenta[a]phenanthren-17-ol (2-ME2) were dissolved independently in 0.1 M Captisol® at concentrations between 10 mg/mL and 21 mg/mL. The solutions were sterile filtered through 0.2 micron filters prior to use.
Animal studies were approved and conducted in accordance with the guidelines of the Institutional Animal Care and Use Committee. A cannulated rat model was used to study the intravenous (iv) and oral absorption 2-ME2 and 2-ME2-PD.
Sprague Dawley rats (male, 250-300 gram, Charles River Laboratories) were implanted with carotid artery, and jugular and/or femoral vein catheters. These studies were automated with the animals connected to the Culex Automated Pharmacology System allowing for direct comparison of pharmacokinetic behavior between the orally and iv administered compounds in the same animal. Following surgery, the animals were connected to the Culex and allowed to recover and acclimate. Fasted animals were dosed intravenously and orally with solutions of 2-ME2-PD in 0.1 M Captisol® (CyDex Pharmaceuticals, Inc) and 2-ME2 parent in 0.2 M HP-13-CD (Sigma-Aldrich).
Oral doses were given via gavage to the animal under light anesthesia. Blood was sampled at times ranging from five to 1440 minutes into heparinized vials stored on the chilled fraction collector, and remained there until sampling was complete. Blood samples were processed to plasma via centrifugation and stored at −80° C. until analysis for 2-ME2-PD, 2-ME2 and associated metabolite concentration by liquid chromatography-mass spectrometry (LC-MS/MS). Bioanalytical methods for the 2-ME2-PD and 2-ME2 analysis were modified from those of Lakhani et. al. Quantitation was made relative to deuterated internal standards.
Pharmacokinetic analysis of the resulting plasma concentration time data was performed using PK Solution software (Summit PK). Results for the studies conducted are illustrated in FIG. 1 and Table II (below). For oral doses of 2-ME2, no compound was found in plasma at all time points studied (<2 ng/mL LOQ). All samples from times greater than 480 minutes had 2-ME2 levels that were below the limit of quantitation.

OE33 xenografts = test: Growth of Barrett's esophageal adenocarcinoma (BEAC) OE33 xenografts in nude mice; type: in vivo; conditions: 75 mg/kg/day orogastric feeding, 8 days, versus vehicle control, listed as pro-2-ME2
Method: We injected ˜2.0×10^6 OE33 cells subcutaneously into the left hind leg flank of each nude mice […] for the development of tumor. The mice were divided into two groups (two mice per group) with a control group and Pro-2-ME2 treatment group. After forming palpable tumors, the nude mice bearing xenografts of OE33 cells were given daily pro-2-ME2 doses (75 mg/kg/day) by orogastric feeding or vehicle (control). Pro-2-ME2 was dissolved in 500 μl of saline water. We used 500 μl of saline water as a vehicle control. Tumor growth was monitored for 8 days by measuring two perpendicular diameters twice weekly. Tumor volume was calculated according to the formula V=a×b^2/2, where a and b are the largest and smallest diameters, respectively.

[4] = plasma 2-ME2, 2-ME2 intravenous 5.21 mg/kg
[5] = plasma 2-ME2, 2-ME2-PD intravenous 10 mg/kg
[6] = plasma 2-ME2, 2-ME2-PD oral 20 mg/kg, average of two animals
[7] = plasma 2-ME2, 2-ME2-PD oral 31.5 mg/kg

COc1cc2c(cc1O)CC[C@@H]1[C@@H]2CC[C@]2(C)C(=O)CC[C@@H]12 [2-methoxyestrone]
loss in activity in vitro versus 2-ME2 [1]: 10-to 100 fold

COc1cc2c(cc1O)CC[C@@H]1[C@@H]2CC[C@]2(C)[C@@H](O)CC[C@@H]12 [2-ME2]
orally administered dose of 2-ME2 recovered in the urine [2]: ~1% | fraction of orally administered 2-ME2 dose recovered in the urine as metabolites ([2]; metabolites, animal and human studies): less than 1% | fraction of orally administered 2-ME2 dose recovered in the urine ([2]; unchanged 2-ME2, animal and human studies): less than 0.1% | Bioavailability ([3]; 2-ME2 intravenous 5.21 mg/kg (reference)): 100% | 2-ME2 in plasma at all time points (LOQ) ([3]; oral doses of 2-ME2 (5.21 mg/kg), no compound found): < 2 ng/mL | AUCt-480 [3, 4]: 19253 ng·min/mL | Cmax [3, 4]: 1221 ng/mL | T1/2 [3, 4]: 0.983 h

COc1cc2c(cc1OCOP(=O)([O-])[O-])CC[C@@H]1[C@@H]2CC[C@]2(C)[C@@H](OC(C)=O)CC[C@@H]12.[Na+].[Na+] [2-ME2-PD, disodium(((8R,9S,13S,14S,17S)-17-acetoxy-2-methoxy-13-methyl-7,8,9,11,12,13,14,15,16,17-decahydro-6H-cyclopenta[a]phenanthren-3-yl)oxy)methyl phosphate]
Bioavailability ([3]; 2-ME2-PD intravenous 10 mg/kg, relative to 2ME2 iv and corrected for dose): 21.8% | Bioavailability ([3]; 2-ME2-PD oral 20 mg/kg, relative to 2ME2 iv and corrected for dose, average of two animals): 4.4% | Bioavailability ([3]; 2-ME2-PD oral 31.5 mg/kg, relative to 2ME2 iv and corrected for dose): 4.9% | absolute bioavailabilities from oral administration ([3]; oral 2-ME2 prodrug, 0-480 minutes): 4-5% | Cmax [3, 5]: 121 ng/mL | T1/2 [3, 5]: 4.37 h | AUCt-480 ([3]; plasma 2-ME2, 2-ME2-PD intravenous 10 mg/kg (corrected dose 6.06 mg/kg)): 4967 ng·min/mL | AUCt-480 ([3]; plasma 2-ME2, 2-ME2-PD oral 20 mg/kg (corrected dose 12.13 mg/kg), average of two animals): 2006 ng·min/mL | Cmax [3, 6]: 8.4 ng/mL | T1/2 [3, 6]: 13.4 h | Cmax [3, 7]: 9.9 ng/mL | T1/2 [3, 7]: 6.85 h | AUCt-480 ([3]; plasma 2-ME2, 2-ME2-PD oral 31.5 mg/kg (corrected dose 19.11 mg/kg)): 3516 ng·min/mL | growth of OE33 tumor implants (tumor volume) (OE33 xenografts): significantly inhibited
